From patent US5852014A, “Condensed indole derivatives as 5HT4 -receptor antagonists” (SmithKline Beecham p.l.c., priority 1992, dated 1998)
Like-named read-outs stand apart in the source and are kept apart here.

Assays:
5-HT4 receptor [1] = biological target: T1, 5-HT4 receptor (Cavia porcellus, UniProt O70528); test: Guinea pig colon: 5-HT-evoked contraction of longitudinal muscle-myenteric plexus preparations
Method: (§1) In some experiments, this tissue was dosed alternately with an approximately equi-effective concentration of the nicotine receptor stimulant, dimethylphenylpiperazinium (DMPP).

nicotine receptor = test: Guinea pig colon: DMPP-evoked contraction (nicotinic receptor agonist); details: 10^-5 M
Method: as §1

5-HT4 receptor [2] = biological target: 5-HT4 receptor (Sus scrofa, UniProt Q6Q253); test: Piglet atria spontaneous beating screen
Chain of 5-HT4 receptor (Sus scrofa, UniProt Q6Q253) (Q6Q253 1-402): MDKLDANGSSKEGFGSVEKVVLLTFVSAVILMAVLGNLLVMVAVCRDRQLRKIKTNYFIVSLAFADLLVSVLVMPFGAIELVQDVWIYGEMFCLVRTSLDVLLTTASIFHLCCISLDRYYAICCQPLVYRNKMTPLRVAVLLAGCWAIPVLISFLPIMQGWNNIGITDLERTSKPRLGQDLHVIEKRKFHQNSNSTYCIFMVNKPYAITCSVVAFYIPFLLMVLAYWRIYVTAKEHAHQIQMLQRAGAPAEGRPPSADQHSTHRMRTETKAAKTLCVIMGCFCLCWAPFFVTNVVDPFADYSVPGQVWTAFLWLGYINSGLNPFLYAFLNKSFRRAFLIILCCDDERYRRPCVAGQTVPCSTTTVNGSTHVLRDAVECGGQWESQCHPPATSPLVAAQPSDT
Method: Compounds are tested in the piglet atria spontaneous beating screen (Naunyn-Schmiedeberg's Arch. Pharmacol 342, 619-622).

5-HT4 receptor [3] = biological target: T2, 5-HT4 receptor (Rattus norvegicus, UniProt Q62758); test: Rat oesophagus: relaxation of carbachol-contracted tunica muscularis mucosae
T2 construct: The inner smooth muscle tube of the muscularis mucosae is isolated; from tissue; host or cells: rat oesophageal tunica muscularis mucosae
T2 sequence (Q62758 whole entry): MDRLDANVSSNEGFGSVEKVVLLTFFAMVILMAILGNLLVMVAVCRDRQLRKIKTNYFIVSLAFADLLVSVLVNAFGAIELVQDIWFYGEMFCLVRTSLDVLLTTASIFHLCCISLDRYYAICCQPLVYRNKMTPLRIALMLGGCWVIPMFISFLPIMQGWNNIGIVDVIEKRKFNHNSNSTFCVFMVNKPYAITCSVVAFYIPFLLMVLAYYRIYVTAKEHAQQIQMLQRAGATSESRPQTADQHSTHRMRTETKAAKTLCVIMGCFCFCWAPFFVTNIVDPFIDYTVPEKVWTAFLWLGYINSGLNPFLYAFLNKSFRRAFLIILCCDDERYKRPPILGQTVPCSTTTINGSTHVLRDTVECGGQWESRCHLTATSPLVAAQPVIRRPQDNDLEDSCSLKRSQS
Excerpt: Rat oesophageal tunica muscularis mucosae is set up according to Baxter et. al. Naunyn-Schmiedeberg's Arch. Pharmacol., 343, 439-446 (1991). […] In contrast to the guinea-pig colon model, where the 5-HT4 receptor is neuronally-located, the receptor here is located on the smooth muscle.

[4] = biological target: piglet hippocampal 5-HT4 receptors (Sus scrofa, UniProt Q6Q253); test: Binding to piglet hippocampal 5-HT4 receptors (125I-SB-207710); details: inhibition of 125I-SB-207710 binding in hippocampus
Chain of piglet hippocampal 5-HT4 receptors (Q6Q253 1-402): as the sequence (Q6Q253 1-402) above

5-HT1D = test: Receptor binding studies: 5-HT1D
Alpha1 = test: Receptor binding studies: Alpha1
[5] = system: 5-HT-induced gastric motility; test: 5-HT-induced motility in dog gastric pouch; assay type: in vivo; details: for ED50: Canis lupus familiaris, read-out: ID50 (contractile response to 5-HT)
Method: 4) 5-HT-Induced Motility in Dog Gastric Pouch
Compounds are tested for inhibition in the in vivo method described in "Stimulation of canine motility by BRL 24924, a new gastric prokinetic agent", Bermudez et al, J. Gastrointestinal Motility, 1990, 2(4), 281-286.
Dogs with previously prepared Heidenhain gastric pouches are fasted overnight.

5-HT4 receptors = test: Antagonism of 5-HT-evoked tachycardia in anaesthetised piglets; assay type: in vivo, piglet
Method: 5) Antagonism in Anaesthetised Piglets
In these experiments, antagonism is assessed against the 5-HT-evoked tachycardia, a response that is mediated by the 5-HT4 receptors. All experiments were in 2-5 day old piglets in which the vagi were sectioned.

5-HT4 receptor [6] = biological target: T1, 5-HT4 receptor; test: Distension-evoked peristalsis in guinea pig isolated ileum; details: 5-HT 10^-7 M
Method: 1) Distension-Evoked Peristalsis in Guinea Pig Isolated Ileum
The oral end was connected to a Krebs-filled reservoir and the aboral end to a vertical column open to the air. The intraluminal filling pressure (oral end) and peristaltic pressure (aboral end) were monitored. The threshold pressure for peristalsis was determined by raising the reservoir at increments of 0.5 cm H2 O at 1 min intervals until peristalsis occurred.

[7] = system: large bowel motility and fluid secretion; test: Faecal pellet output and fluid content in conscious fed mice (normal and 5-HTP-treated); assay type: in vivo, mouse
Excerpt: 2) Antagonism in Conscious Fed Mice
A model was developed to examine the effect of 5-HT4 receptor antagonists on large bowel motility (faecal pellet output, FPO) and fluid secretion (pellet wet/dry weight) during `fed` conditions. The antagonists are studied in normal mice (to determine adverse effects, eg constipation)and in mice with functional diarrhoea caused by 5-HTP [Banner S E, Smith M I, Bywater D and Sanger G J (1993), Br J Pharmacol, 110, 17 P, and Banner S E, Smith M I and Sanger G J (1993) Br J Pharmacol; 110, 135 P]. Faecal pellets were collected at 10 min intervals so that their number and wet/dry weights could be determined.

anxiolytic activity = test: Social interaction test in rats; assay type: in vivo, rat; details: 0.01, 1, 10 mg.kg^-1
Method: IN VIVO TESTING FOR ANXIOLYTIC ACTIVITY
Social Interaction Test in Rats
Rats (male, Sprague Dawleys, Charles River, 250-300 g) are housed in groups of eight in a holding room for 5 days. They are then housed singly in a room adjacent to the experimental room for 4 days prior to the experimental day. On the experimental day rats are administered vehicle, test compound or a benzodiazepine anxiolytic, chlordiazepoxide, p.o. in pairs (n=8-16), at 15 minute intervals beginning at 10.00 a.m. […] The box is made of white perspex 54 cm×37 cm×26 cm with a transparent perspex front side and no lid. The floor is divided up into 24 squares and the box is brightly lit (115 lux). Active social interactive behaviours (grooming, sniffing, climbing over or under, following, biting, mounting and boxing) are scored blind for the next 15 min by remote video monitoring to give total interaction scores. The number of squares crossed by each rat is also scored and summed. After the end of each test the box is carefully wiped.

5-HT4 receptor [8] = biological target: T1, 5-HT4 receptor
Method: Male guinea-pigs, weighing 250-400 g are used. Longitudinal muscle-myenteric plexus preparations, approximately 3 cm long, are obtained from the distal colon region. These are suspended under a 0.5 g load in isolated tissue baths containing Krebs solution bubbled with 5% CO2 in O2 and maintained at 37° C. In all experiments, the Krebs solution also contains methiothepin 10^-7 M and granisetron 10^-6 M to block effects at 5-HT1, 5-HT2 and 5-HT3 receptors.

T1 sequence (O70528 whole entry): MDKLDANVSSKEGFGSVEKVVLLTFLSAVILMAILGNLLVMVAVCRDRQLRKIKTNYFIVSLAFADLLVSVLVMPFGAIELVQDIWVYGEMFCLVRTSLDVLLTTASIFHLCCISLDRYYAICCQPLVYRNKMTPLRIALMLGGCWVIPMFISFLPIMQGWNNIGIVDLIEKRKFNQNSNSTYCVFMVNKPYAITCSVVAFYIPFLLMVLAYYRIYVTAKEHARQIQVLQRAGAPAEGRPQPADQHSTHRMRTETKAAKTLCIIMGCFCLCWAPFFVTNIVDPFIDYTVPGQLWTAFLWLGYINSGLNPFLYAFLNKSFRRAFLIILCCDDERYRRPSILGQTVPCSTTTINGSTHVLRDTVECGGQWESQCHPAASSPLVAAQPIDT

CCCCN1CCC(CNC(=O)c2c3n(c4ccccc24)CCCO3)CC1 [SB-207266-A, N-[(1-^n Butyl-4-piperidyl)methyl]-3,4-dihydro-2 H-[1,3]oxazino[3,2-a]indole-10-Carboxamide]
Kb (5-HT4 receptor [1]): 0.0398 nM | effect on maximum response to 5-HT (5-HT4 receptor [1]; 3×10^-8 M and above): the maximum response to 5-HT was reduced in a concentration-dependent manner | effect on 5-HT concentration-response curve (5-HT4 receptor [1]; 10^-10-10^-8 M, n=6): parallel rightward shift of the 5-HT curve with no effect on the maximum response | slope (pA2) (5-HT4 receptor [1]; 10^-10-10^-8 M, n=6): not significantly different from unity | recovery time of responses to 5-HT (5-HT4 receptor [1]; at the highest concentrations (which reduce maximum 5-HT-evoked contractions), washout): ≤ 90 min | reversibility of antagonism (5-HT4 receptor [1]; upon washout): could be reversed upon washout | effect on DMPP-evoked contractions (nicotine receptor): unaffected | effect on 5-HT curve (5-HT4 receptor [2]; 10^-7 M): shifted the curve to the right with an apparent reduction in the maximum response | estimated pKb (-log10 Kb) (5-HT4 receptor [2]; n=2): 10.1 | antagonism of 5-HT response (in words) (5-HT4 receptor [3]): concentration-dependently acted as a non-surmountable antagonist and reduced the maximum response evoked by 5-HT | Kb (5-HT4 receptor [3]; from data with the lowest effective concentration, no reliable pA2 estimate possible): ≤ 0.1 nM | pKi [4]: 9.48±0.06 | pKd (5-HT1D): < 5.00 | pKd (Alpha1): < 5.52 | duration of action (in words) ([5]; 1 and 3 ug.kg^-1 iv): variable and apparently reversible | duration of antagonism ([5]; 10 and 100 ug.kg^-1 iv, longer than the experiment): > 285 min | ED50 ([5]; iv): 1.3 µg/kg | ED50 ([5]; po): 9.6 µg/kg | effect on basal motility ([5]; any dose, iv and po): no effect | antagonism of 5-HT-evoked tachycardia (5-HT4 receptors; 0.1, 0.3 or 1.0 ugkg^-1 iv, n=2 each): antagonised the 5-HT-evoked tachycardia in a dose-dependent manner | recovery from antagonism (5-HT4 receptors; 0.3, 1.0 ugkg^-1 i.v., over the duration of the experiment): incomplete | preparations in which the sensitising effect of 5-HT was abolished (5-HT4 receptor [6]; 10^-9 M): 3/3 | tissues in which the action of 5-HT was antagonised (5-HT4 receptor [6]; 10^-10 M): 3/4 | tissues in which there was no ability to antagonise the sensitising effect of 5-HT (5-HT4 receptor [6]; 10^-11 M): 4/4 | duration of action ([7]; 100 ug.kg^-1, dosed 2.5 hours before 5-HTP): effective | duration of action ([7]; 100 ug.kg^-1, pre-dosed 6 hours before 5-HTP): without effect | effect on 5-HTP-evoked increase in FPO ([7]; 0.1 to 10 ug.kg^-1 s.c., 5-HTP 10 mg kg^-1 s.c.): dose-dependently prevented the 5-HTP-evoked increase in FPO | effect on fluid secretion evoked by 5-HTP ([7]; 5-HTP 10 mg kg^-1 s.c.): prevented | effect on watery diarrhoea caused by 5-HTP ([7]; 5-HTP 50 mg.kg^-1): reduce the watery diarrhoea | effect on the effects of 5-HTP, oral ([7]; 10-1000 ug.kg^-1 po, 30 min prior to 5-HTP): greatly reduced the effects of 5-HTP | effect on FPO or fluid content in normal mice ([7]; s.c. or po, not pretreated with 5-HTP): did not affect either FPO or their fluid content in normal mice | locomotion during the test (anxiolytic activity): not accompanied by any alteration in locomotion | total interaction scores (anxiolytic activity; 1 h after administration): Significantly increased total interaction scores | effect on BIMU 1 concentration-response (5-HT4 receptor [8]): reduced the maximum response to BIMU 1, without causing a prior right-ward shift in the concentration-response curve
